What was measured:
CMK cells = assay: Polyploidization of CMK cells (DNA content); format: cell-based, human; conditions: CMK cells
Description: (§1) (A) Y10, (B) GIME, and (C) CMK cells were grown in the presence of TPO, SU6656, or vehicle (DMSO) for 72 hours. DNA content was measured by flow cytometry. The percentages of cells that reach a DNA content of ≧8N are boxed in A and C, those equal to 8N are boxed in B. D) CMK cells were grown as in (C), and cell numbers were enumerated at 0, 24, 48 and 72 h.
(§2) To study how megakaryocytes switch from a proliferative to endomitotic cell cycle, the Src kinase inhibitor SU6656 is being utilized.
In collaboration with the Broad Institute, a high throughput screen for small molecules was conducted to identify small molecules that preferentially induce polyploidization or differentiation of megakaryocytes. We screened 10,000 compounds from the Broad's extensive collection of small molecules (including known bioactives, kinase and HDAC inhibitors, and natural products) to identify inducers of megakaryocyte polyploidization. […] 6) Data were analyzed using both MetaXpress software and “Cell Profiler,” software designed at MIT and the Broad Institute. […]

[1] = system: CD41-cells (all other cell types); format: cell-based, human; conditions: ET patient bone marrow, 5 days
Description: Referring to FIG. 5, bone marrow mononuclear cells from a patient with ET were cultured with two doses of DMF for 10 days.
Mononuclear cells from bone marrow of patients were obtained by informed consent from patients at Northwestern Feinberg School of Medicine. Mononuclear cells were separated from marrow with Ficoll (GE Healthcare life sciences, Piscataway, N.J.) and resuspended in IMDM (Iscove's Modified Dulbecco's Media) media without serum. The cells were stained with 0.4% trypan blue solution for 5 minutes and live cells were counted. Live cells were assayed in CFU-MK (“Colony forming units-megakaryocytes”) and BFU-E (“Burst forming unit-erythroid”) assays as well as in liquid culture.
Liquid culture. Marrow cells from ET patients were also cultured in RPMI with 10% FBS in the presence of recombinant human TPO (thrombopoeitin, 50 ng/ml). […] After 5 days, the cells were collected and stained with APC (allophycocyanin) labeled anti-human CD41 antibody (BD Biosciences San Jose, Calif.). The cells were then stained overnight with 1 μg/mL 4′,6-diamidinio-2-phenylindole (DAPI). DNA content of both CD41+ cells and CD41-negative cells was analyzed by utilizing a BD LSRII flow cytometer (BD Biosciences San Jose, Calif.).

GIME cells = assay: Polyploidization of GIME cells (DNA content by flow cytometry); format: cell-based; conditions: GIME cells, 48 hours, DAPI, flow cytometry
Description: as §1
DNA content was then assessed by flow cytometry. Numbers above the bar indicate % of cells ≧8N. b) After 48 hours, GIME cells from a) were stained with anti-CD42 antibodies and the cell surface expression of CD42 was evaluated by flow cytometry.
as §2

[2] = system: 6133/MPL megakaryocytic leukemia cells; assay: 6133/MPL transplant model of AMKL, oral gavage treatment; format: in vivo, C57B1/6 mice; conditions: for lifespan: from day 3
Description: FIG. 10 illustrates that DMF prevents AMKL in vivo. N=7 per group. […] transplant recipients were treated with two daily doses of vehicle, 33 mg/kg DMF, or 66 mg/kg DMF by oral gavage. Treatment with 33 or 66 mg/kg DMF led to statistically significant extensions in leukemia free survival (p=0.003 and 0.004 respectively).
To determine whether polyploidization-inducing agents can serve as new therapies for AMKL, DMF was assessed in an animal model for AMKL. To this end, an animal model of AMKL was developed by transplanting 6133/MPL megakaryocytic leukemia cells into sub-lethally irradiated recipient C57B1/6 mice. The parental 6133 cell line, which is dependent upon TPO for survival, was derived from a leukemic mouse that expressed the AMKL t(1:22) fusion protein OTT-MAL by knock-in gene targeting (35). 6133 cells were then transduced with a MPLW515L expressing retrovirus, and stable TPO-independent clones were isolated. […] The disease was characterized by massive infiltration of CD41^+ cells in the bone marrow and spleen.
After 3 days, the mice were treated with twice daily doses of DMF for 10 days. Seven mice were utilized per experimental condition. […] With 66 mg/kg nearly 50% of the mice remained disease free for at least 70 days. In contrast, all of mice fed only water (vehicle) died of leukemia by 20 days.
C57BL/6 mice (purchased from the Jackson Laboratory, Bar Harbor, Me.) were sub-lethally irradiated with 600 rads. Mice were then anesthetized by an IP injection of mixture of Ketamine (100 mg/kg) and xylazine (5 mg/kg) 2 hours after irradiation. C57/B16 mice were intravenously injected with 1×10^6 6133/MPL cells, which were labeled with green fluorescent protein (GFP). Two different doses of DMF (33 mg/kg or 66 mg/kg) or water were administered to mice by oral gavage twice daily (b.i.d.) starting on the 3rd day after transplantation. For pre-treatment model, 6133/MPL cells were incubated with 5 μM DMF or DMSO for 24 hours. Live cells treated with DMF or […] were separated with Ficoll and transplanted into sub-lethally irradiated mice. Development of disease was assessed with presence of GFP-positive cells in the peripheral blood by FACS and by monitoring the health and body weight of the animals. Mice were sacrificed based on a protocol that includes assessment of morbidity by >20% loss of weight, severe anemia, scruffy appearance, and/or severe lethargy.

[3] = system: non-megakaryocytic cells (CD41-negative); assay: Effect on non-megakaryocytic (CD41-negative) cells in human CD34+ culture; format: cell-based; conditions: CD41-negative population
Description: FIG. 4 illustrates that DMF induces polyploidization of normal human megakaryocytes and that its activity is restricted to the CD41+ population. Human CD34+ cells were cultured with TPO for 12 days and then fixed and stained with DAPI. DMSO or DMF were added to the culture after 9 days. DNA content was then assessed by flow cytometry. Numbers above the bar indicate % of cells ≧8N.
In collaboration with the Broad Institute, a high throughput screen for small molecules was conducted to identify small molecules that preferentially induce polyploidization or differentiation of megakaryocytes. We screened 10,000 compounds from the Broad's extensive collection of small molecules (including known bioactives, kinase and HDAC inhibitors, and natural products) to identify inducers of megakaryocyte polyploidization. The screen was performed in the following manner: 1) 4,000 CMK (human megakaryocytic leukemia) cells were plated into each well of a 384-well plate, 2) 100 n1 of compounds (yielding a final concentration of 10 μM) were pinned into the wells, 3) plates were incubated at 37° C. for 72 hours, 4) cells were fixed and stained with Hoescht, and 5) plates were imaged using an ImageXpressMICRO high content imager with 20× objective. Nine images per well were collected. 6) Data were analyzed using both MetaXpress software and “Cell Profiler,” software designed at MIT and the Broad Institute. […]

dimethylfasudil [DMF]
induction of polyploidization (CMK cells): potent inducer of polyploidization | effect on CD41-cells (all other cell types) [1]: no effect | induction of polyploidization (GIME cells): potent inducers | induction of polyploidization (GIME cells; listed as Rho-kinase inhibitor): potent inducer of polyploidization | leukemia free survival p ([2]; 33 mg/kg by oral gavage vs vehicle): 0.003 | lifespan ([2]; 33 mg/kg twice daily oral gavage for 10 days): significant extensions in lifespan | leukemia free survival p ([2]; 66 mg/kg by oral gavage vs vehicle): 0.004 | mice remaining disease free for at least 70 days ([2]; 66 mg/kg twice daily oral gavage): ~50% | lifespan ([2]; 66 mg/kg twice daily oral gavage for 10 days): significant extensions in lifespan | long-term survival of mice ([2]; feeding to mice): up to 50% | effect on non-megakaryocytic (CD41-negative) cells [3]: no effect
